{"source": "PubChem BioAssay AID1985", "about": "(Southern Research Specialized Biocontainment Screening …, 2009)", "data": [{"test_system": "S. Typhi PhoP-promoter GFP reporter, fluorescence, 4 h", "assay": "modified counter assay using GFP fluorescence, PhoP regulon inhibitor project, dose response (AID 1985)", "units": {"IC50": "µM"}, "values": [{"smiles": "COc1c(N2CCN(C(=S)NCc3ccccc3)C(C)C2)c(F)cc2c(=O)c(C(=O)O)cn(C3CC3)c12", "note": "(centres undefined)", "IC50": 10.8}, {"smiles": "Cc1ccsc1/C=N/Nc1ccc(C(=O)O)cc1", "IC50": 94.2}, {"smiles": "Cc1ccc(Nc2c3c(nc4ccccc24)CCC3)cc1", "IC50": 39.8}, {"smiles": "Oc1ccc(Cl)cc1Cc1cc(Cl)ccc1O", "IC50": 36}, {"smiles": "Clc1ccc(C(c2ccc(Cl)cc2)n2cc[n+](CC(OCc3ccc(Cl)cc3Cl)c3ccc(Cl)cc3Cl)c2)cc1", "note": "(centres undefined)", "IC50": 15}, {"smiles": "O=c1cc(-c2ccccc2)cc(-c2ccccc2)n1O", "IC50": 51.7}, {"smiles": "Nc1nonc1-n1nnc(C(=O)N/N=C/c2cc(Br)ccc2O)c1CSC1=NCCS1", "IC50": 26}, {"smiles": "COc1cc(/C=C2/C(=O)NN(c3ccc(F)cc3)C2=O)cc([N+](=O)[O-])c1O", "IC50": 34.7}, {"smiles": "CCCCCCCCNc1ncnc2ccccc12", "IC50": 35.8}, {"smiles": "C=CC1=C(C(=O)O)N2C(=O)[C@@H](NC(=O)/C(=N/OCC(=O)O)c3csc(N)n3)[C@H]2SC1", "IC50": 21}, {"smiles": "O=C(N/N=C/c1c(O)ccc2ccccc12)c1ccc(CO)nc1", "IC50": 80.1}, {"smiles": "CCn1nc(C(=O)O)c(=O)c2cc3c(cc21)OCO3", "IC50": 103}, {"smiles": "Oc1c(Br)cc(Br)cc1C=Nc1ccc2[nH]ncc2c1", "IC50": 48.6}, {"smiles": "Nc1nc(Nc2ccccc2)nc2ccccc12", "IC50": 56.2}, {"smiles": "NC1=NC[C@@H](Cc2ccc(O)cc2)N1CCCCC1CCCCC1", "IC50": 32.5}, {"smiles": "N=c1c2c(n(Cc3ccc(Cl)c(Cl)c3)c3c1CCC3)CCCC2", "IC50": 80.1}, {"smiles": "O=c1cc(-c2ccc(O)cc2)oc2c(O)c(O)c(O)c(O)c12", "IC50": 40.2}, {"smiles": "CC(C)[C@@H]1CC[C@@H](C)C[C@H]1OC(=O)C[n+]1cc(-c2ccc(Cl)cc2)n2c1CCCCC2", "IC50": 142}, {"smiles": "Cc1ccc(OCC(O)Cn2c(=N)n(CCN3CCCCC3)c3ccccc32)cc1", "note": "(centres undefined)", "IC50": 67.9}, {"smiles": "Cc1cc2nc(C3CCN(CC4COc5ccccc5O4)CC3)[nH]c2cc1C", "note": "(centres undefined)", "IC50": 15.2}, {"smiles": "O=C(C[n+]1cnn(CC(=O)c2ccc(Cl)cc2Cl)c1)c1ccc([N+](=O)[O-])cc1", "IC50": 42.8}, {"smiles": "N=c1n(CCN2CCCCC2)c2ccccc2n1CC(O)c1ccc(Cl)c(Cl)c1", "note": "(centres undefined)", "IC50": 64.1}, {"smiles": "Cc1ccc(CNCCC2=CCCCC2)cc1", "IC50": 81.9}, {"smiles": "C#CCOCCOCCOCCNc1nc(N2CCN(C(=O)CCCCCCCCCCNC(=O)[C@H](CCCCN)n3cc(C[C@@H](C)CC)nn3)CC2)nc(N2CCN(C(=O)CCCCCCCCCCNC(=O)[C@@H]([C@H](C)O)n3cc(C)nn3)CC2)n1", "IC50": 138}, {"smiles": "CCS(=O)(=O)c1ccc2oc(=O)c(/C=C(\\O)c3ccc(Cl)cc3)nc2c1", "IC50": 65.1}, {"smiles": "Cc1cccc(Nc2nc(NCc3ccco3)c3ccccc3n2)c1", "IC50": 11}, {"smiles": "Cc1[nH]c2ccc(OC(F)(F)F)cc2c1CCNCc1ccc(Cl)cc1", "IC50": 36.3}, {"smiles": "Cc1nc(N)nc(N)c1CCCc1ccc(Cl)c(Cl)c1", "IC50": 43.1}, {"smiles": "O=c1c2ccccc2[nH]c2ccccc12", "IC50": 27.2}, {"smiles": "O=S1(=O)Nc2c(ccc3cccnc23)-c2ccccc21", "IC50": 1.17}, {"smiles": "O=C(NC(CO)C(O)c1ccc([N+](=O)[O-])cc1)C(Cl)Cl", "note": "(centres undefined)", "IC50": 2.55}, {"smiles": "O=C(Nc1ccc(Cc2ccncc2)cc1)c1ccc([N+](=O)[O-])o1", "IC50": 39.5}, {"smiles": "C/C(O)=C\\c1nc2ccccc2oc1=O", "IC50": 14.9}, {"smiles": "COc1ccc(Cc2nnc(N/N=C/c3ccc(O)cc3)[nH]c2=O)cc1OC", "IC50": 54.8}, {"smiles": "CC(Nc1nc(N2CCCC2)nc2ccccc12)c1ccccc1", "note": "(centres undefined)", "IC50": 149}, {"smiles": "CSc1ccc2c(c1)C(N1CCN(C)CC1)Cc1ccc(F)cc1S2", "note": "(centres undefined)", "IC50": 51.8}, {"smiles": "CN(C)CCCNc1cc(C(C)(C)C)nc2c(-c3ccccc3)cnn12", "IC50": 75.7}, {"smiles": "C#CCOCCOCCOCCNc1nc(N2CCN(C(=O)CCCCCCCCCCNC(=O)[C@H](CCCCN)n3cc(CCO)nn3)CC2)nc(N2CCN(C(=O)CCCCCCCCCCNC(=O)[C@H](CCCN=C(N)N)n3cc(C[C@@H](C)CC)nn3)CC2)n1", "IC50": 56.8}, {"smiles": "O=C(N/N=C/c1ccc([N+](=O)[O-])o1)c1ccc(O)cc1", "IC50": 18.3}, {"smiles": "Cc1cc(C)c2nc(C)cc(N/N=C/c3ccc(O)cc3)c2c1", "IC50": 49.7}, {"smiles": "CN(C)c1ccc2nc3ccc(=[N+](C)C)cc-3sc2c1", "IC50": 22.7}, {"smiles": "COc1ccc(CNc2ncnc3c2[nH]c2ccccc23)cc1", "IC50": 59.2}, {"smiles": "COc1ccc(C(=O)NC(=S)NNC(=O)c2cnccn2)cc1", "IC50": 80.5}, {"smiles": "CCCCCCCCCCOC(=O)Cn1c(COc2ccc(Cl)cc2)[n+](C)c2ccccc21", "IC50": 15.7}, {"smiles": "C#CCOCCOCCOCCNc1nc(N2CCN(C(=O)CCCCCCCCCCNC(=O)[C@H](CCCCN)n3cc(C)nn3)CC2)nc(N2CCN(C(=O)CCCCCCCCCCNC(=O)[C@H](CCCN=C(N)N)n3cc(C[C@@H](C)CC)nn3)CC2)n1", "IC50": 31.9}, {"smiles": "O=c1c2ccccc2nc(-c2cccc(Cl)c2)n1O", "IC50": 113}, {"smiles": "CCc1cccc2c1Sc1ccccc1CC2N1CCNCC1", "note": "(centres undefined)", "IC50": 44.4}, {"smiles": "CC/C(=N\\Nc1ccnc2cc(Cl)ccc12)c1ccc(O)cc1", "IC50": 148}, {"smiles": "NC1=NC[C@H](Cc2ccc(O)cc2)N1CCCCC1CCCCC1", "IC50": 25.5}, {"smiles": "O=C(C[n+]1cc(-c2ccc(Cl)cc2)n2c1CCC2)Nc1nc(-c2ccccc2)cs1", "IC50": 36.7}, {"smiles": "COc1cc(Br)cc(C=Nc2cccc(C(F)(F)F)c2)c1O", "IC50": 69.4}, {"smiles": "CN(C)CCCNC(=S)NCC(c1ccc(Cl)cc1Cl)c1c[nH]c2ccccc12", "note": "(centres undefined)", "IC50": 36.5}, {"smiles": "CSc1nc2cc(Oc3cccc(Cl)c3Cl)c(Cl)cc2[nH]1", "IC50": 57.8}, {"smiles": "CCOc1ccc(Nc2nc(NCC3CCCO3)c3ccccc3n2)cc1", "note": "(centres undefined)", "IC50": 14.2}]}]}
